In PMC3968014, “Design and Synthesis of a Library of Lead-Like 2,4-Bisheterocyclic Substituted Thiophenes as Selective Dyrk/Clk Inhibitors” (PLoS ONE, 2014):
“And” between values parts separate entries of the source, which are not always exact repeats. Equal entries are not always repeated.

Key:
Dyrk1A = molecular target: T1, Dyrk1A (Homo sapiens, UniProt Q13627); experiment: Dyrk1A kinase assay (32P-ATP, Woodtide); assay type: biochemical; settings: for IC50: 100 µM ATP; for inhibition at 5 µM: read-out: percentage of inhibition Dyrk1A; for inhibition at 5 µM / percentage of inhibition Dyrk1A: at 5 µM
T1 construct: encoding the catalytic domain of human Dyrk1A; thrombin cleavage site (N); made in house; host or cells: Escherichia coli BL21(DE3) with pRARE

CK2α = molecular target: T2, CK2α (Homo sapiens, UniProt P68400); experiment: CK2α kinase assay (counter screen); assay type: biochemical; settings: read-out: percentage of inhibition CK2α
T2 construct: purchased Life Technologies (Invitrogen SelectScreen); Dyrk1A, Dyrk2 and CK2α in-house or gifts
T2 sequence (P68400 whole entry): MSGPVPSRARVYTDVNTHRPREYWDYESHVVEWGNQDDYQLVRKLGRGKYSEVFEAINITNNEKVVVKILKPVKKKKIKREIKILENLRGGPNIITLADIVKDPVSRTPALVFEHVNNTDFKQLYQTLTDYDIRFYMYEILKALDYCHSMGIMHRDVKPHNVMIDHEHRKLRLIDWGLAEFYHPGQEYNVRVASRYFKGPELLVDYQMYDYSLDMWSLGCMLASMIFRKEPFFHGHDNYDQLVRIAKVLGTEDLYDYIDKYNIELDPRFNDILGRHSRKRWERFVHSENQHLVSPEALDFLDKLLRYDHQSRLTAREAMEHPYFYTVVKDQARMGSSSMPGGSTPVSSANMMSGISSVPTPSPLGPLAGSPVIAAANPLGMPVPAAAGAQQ
Experimental: Dyrk1A, Dyrk1B, Dyrk2, CK2α and Clk1 kinase reactions were performed in a reaction buffer containing 50 mM Tris/HCl, pH 7.4, 0.1 mM EGTA, 0.5 mM DTT, 10 mM MgCl2, 100 µM ATP and 0.33 µM [γ-^32ATP] as well as the appropriate substrate peptides, which were 100 µM Woodtide for the Dyrk isoforms ([…]-NH2), 60 µM CK2 substrate peptide ([…]-NH2, from Millipore) for CK2α or RS repeat peptide ([…]) for Clk1. The CK2α protein was a kind gift of M. Montenarh (Homburg). The kinase reactions were performed at 30°C for 15 min and terminated by spotting 5 µL of the reaction mixture onto a P81 phosphocellulose membrane (Whatman). The membrane was washed four times with 0.3% phosphoric acid and one time with acetone and dried. The dry membrane was exposed in a cassette to a Phosphor Screen Imaging Plate (FujiFilm) and the signals detected by scanning of the imaging plate in a Fuji FLA-3000 PhosphoImager. The spots were quantified using AIDA software (Raytest, Version 3.52) to determine the activities of the kinases in the assay reactions. […] IC50 values were calculated by fitting the data with Origin Pro 8.6 (OriginLabs). The calculated IC50 values are representative of at least two independent determinations.

Dyrk1B = molecular target: T3, Dyrk1B (Homo sapiens, UniProt Q9Y463); experiment: Dyrk1B kinase assay (32P-ATP, Woodtide); assay type: biochemical; settings: for IC50: 100 µM ATP; for inhibition at 1 µM / inhibition at 5 µM: read-out: percentage of inhibition Dyrk1B; for percentage of inhibition Dyrk1B / inhibition at 5 µM: at 5 µM
T3 construct: purchased Life Technologies PV4649 (LOT # 877059G)
T3 sequence (Q9Y463 whole entry): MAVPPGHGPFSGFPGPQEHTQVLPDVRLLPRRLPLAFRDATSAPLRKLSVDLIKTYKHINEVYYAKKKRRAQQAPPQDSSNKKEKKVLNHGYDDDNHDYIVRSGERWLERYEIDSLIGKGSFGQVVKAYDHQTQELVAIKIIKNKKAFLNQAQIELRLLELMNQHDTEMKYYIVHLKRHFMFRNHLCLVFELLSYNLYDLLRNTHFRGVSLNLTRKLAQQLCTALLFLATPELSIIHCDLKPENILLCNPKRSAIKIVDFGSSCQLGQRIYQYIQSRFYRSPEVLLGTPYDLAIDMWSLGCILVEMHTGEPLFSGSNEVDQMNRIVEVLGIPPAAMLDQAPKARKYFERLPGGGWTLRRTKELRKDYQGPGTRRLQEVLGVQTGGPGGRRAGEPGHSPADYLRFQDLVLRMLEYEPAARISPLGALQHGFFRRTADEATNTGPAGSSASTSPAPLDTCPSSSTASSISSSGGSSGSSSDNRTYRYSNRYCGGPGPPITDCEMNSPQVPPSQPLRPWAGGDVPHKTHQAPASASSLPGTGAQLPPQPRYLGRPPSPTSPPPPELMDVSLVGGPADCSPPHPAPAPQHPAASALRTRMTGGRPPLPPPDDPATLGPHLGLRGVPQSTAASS

Dyrk2 = molecular target: T4, Dyrk2 (Homo sapiens, UniProt Q92630); experiment: Dyrk2 kinase assay (32P-ATP, Woodtide); assay type: biochemical; settings: for IC50: 100 µM ATP, read-out: IC50 Dyrk2; for inhibition at 1 µM / inhibition at 5 µM: read-out: percentage of inhibition Dyrk2
T4 construct: made in house; host or cells: Escherichia coli BL21(DE3) with pRARE; plasmid pGEX-2TK-Dyrk2 (gift from W. Becker, Aachen)
T4 sequence (Q92630 1-601): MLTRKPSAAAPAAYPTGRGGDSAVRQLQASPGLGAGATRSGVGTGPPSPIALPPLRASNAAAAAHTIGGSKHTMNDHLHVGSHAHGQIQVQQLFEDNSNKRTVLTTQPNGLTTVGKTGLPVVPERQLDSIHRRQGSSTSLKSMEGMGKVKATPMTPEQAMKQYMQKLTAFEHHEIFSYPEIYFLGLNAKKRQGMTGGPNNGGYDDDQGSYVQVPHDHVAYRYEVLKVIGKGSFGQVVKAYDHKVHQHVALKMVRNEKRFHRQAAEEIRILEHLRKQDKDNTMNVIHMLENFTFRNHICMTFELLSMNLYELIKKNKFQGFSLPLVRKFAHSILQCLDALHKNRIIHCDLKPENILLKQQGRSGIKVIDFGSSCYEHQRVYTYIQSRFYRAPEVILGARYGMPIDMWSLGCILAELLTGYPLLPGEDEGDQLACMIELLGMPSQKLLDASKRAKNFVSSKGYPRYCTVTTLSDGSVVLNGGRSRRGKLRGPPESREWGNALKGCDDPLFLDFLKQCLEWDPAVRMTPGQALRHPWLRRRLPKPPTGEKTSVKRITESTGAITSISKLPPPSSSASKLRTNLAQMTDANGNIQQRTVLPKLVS

## Cc1cc(-c2csc(-c3cccc(O)c3)c2)ccc1O [Compound 1]
Dyrk1A
  IC50: 2000 nM
CK2α
  inhibition at 5 µM: 15%

## Cc1cc(O)cc(-c2csc(-c3cccc(O)c3)c2)c1 [Compound 2]
Dyrk1A
  inhibition at 5 µM: 10%

## Cc1cncc(-c2csc(-c3cccnc3)c2)c1 [Compound 5, 3-methyl-5-[5-(pyridin-3-yl)thiophen-3-yl]pyridine]
Dyrk1A
  IC50: 900 nM
Dyrk1B
  IC50: 1200 nM
Dyrk2
  IC50: 600 nM
CK2α
  inhibition at 5 µM: 5%
other
  melting point: 106 to 107 °C

## Cc1ccncc1-c1csc(-c2cccnc2)c1 [Compound 6]
Dyrk1A
  IC50: 4400 nM
Dyrk1B
  IC50: 8000 nM
Dyrk2
  inhibition at 1 µM: 10%
CK2α
  inhibition at 5 µM: 0%

## Cc1ccc(-c2csc(-c3cccnc3)c2)cn1 [Compound 7]
Dyrk1A
  IC50: 4700 nM
Dyrk1B
  IC50: 3400 nM
Dyrk2
  IC50: 1600 nM
CK2α
  inhibition at 5 µM: 0%

## COc1cncc(-c2csc(-c3cccnc3)c2)c1 [Compound 8, 3-methoxy-5-[5-(pyridin-3-yl)thiophen-3-yl]pyridine]
Dyrk1A
  IC50: 700 nM
Dyrk1B
  IC50: 300 nM
Dyrk2
  IC50: 200 nM
CK2α
  inhibition at 5 µM: 16%
other
  melting point: 132 to 133 °C

## COc1ccc(-c2csc(-c3cccnc3)c2)cn1 [Compound 9]
Dyrk1B
  IC50: 34000 nM
Dyrk2; at 5 µM
  percentage of inhibition Dyrk2: No inhibition
CK2α
  inhibition at 5 µM: 0%

## CCOc1cncc(-c2csc(-c3cccnc3)c2)c1 [Compound 10]
Dyrk1A
  inhibition at 5 µM: 45%
Dyrk1B
  inhibition at 1 µM: 6%
Dyrk2
  inhibition at 1 µM: 22%
CK2α
  inhibition at 5 µM: 0%

## Cc1cc(-c2csc(-c3cccnc3)c2)ccn1 [Compound 12]
Dyrk1A
  inhibition at 5 µM: 23%
Dyrk1B
  percentage of inhibition Dyrk1B: No inhibition
Dyrk2; at 5 µM
  inhibition at 5 µM: 37.5%

## N#Cc1cncc(-c2csc(-c3cccnc3)c2)c1 [Compound 13]
Dyrk1A
  IC50: 2600 nM
Dyrk1B
  inhibition at 5 µM: 30%
Dyrk2; at 5 µM
  inhibition at 5 µM: 44%
CK2α
  inhibition at 5 µM: 3%

## FC(F)(F)c1cncc(-c2csc(-c3cccnc3)c2)c1 [Compound 14]
Dyrk1A
  IC50: 3100 nM
Dyrk1B
  IC50: 5400 nM
Dyrk2
  IC50: 3000 nM
CK2α
  inhibition at 5 µM: 0%

## Fc1cncc(-c2csc(-c3cccnc3)c2)c1 [Compound 15, 3-fluoro-5-[5-(pyridin-3-yl)thiophen-3-yl]pyridine]
Dyrk1A
  IC50: 900 nM
Dyrk1B
  IC50: 1400 nM
Dyrk2
  IC50: 400 nM
CK2α
  inhibition at 5 µM: 0%
other
  melting point: 186 to 187 °C

## Clc1cncc(-c2csc(-c3cccnc3)c2)c1 [Compound 16]
Dyrk1A
  IC50: 1200 nM
Dyrk1B
  IC50: 1900 nM
Dyrk2
  IC50: 700 nM
CK2α
  inhibition at 5 µM: 14%

## CC(=O)c1cncc(-c2csc(-c3cccnc3)c2)c1 [Compound 17, 1-{5-[5-(pyridin-3-yl)thiophen-3-yl]pyridin-3-yl}ethan-1-one]
Dyrk1A
  IC50: 900 nM
Dyrk1B
  IC50: 1100 nM
Dyrk2
  IC50: 900 nM
CK2α
  inhibition at 5 µM: 0%
other
  melting point: 166 to 167 °C

## COC(=O)c1cncc(-c2csc(-c3cccnc3)c2)c1 [Compound 18]
Dyrk1A
  IC50: 1200 nM
Dyrk1B
  IC50: 1700 nM
Dyrk2
  IC50: 1500 nM
CK2α
  inhibition at 5 µM: 14%

## NC(=O)c1cncc(-c2csc(-c3cccnc3)c2)c1 [Compound 19, 5-[5-(pyridin-3-yl)thiophen-3-yl]pyridine-3-carboxamide]
Dyrk1A
  IC50: 900 nM
Dyrk1B
  IC50: 1500 nM
Dyrk2
  IC50: 300 nM
CK2α
  inhibition at 5 µM: 4.2%
other
  melting point: 217 to 218 °C

## c1cncc(-c2cc(-c3cnc4ccccc4c3)cs2)c1 [Compound 20]
Dyrk1A
  IC50: 1100 nM
Dyrk1B
  IC50: 900 nM
Dyrk2
  IC50: 1800 nM
CK2α
  inhibition at 5 µM: 27%

## c1cncc(-c2cc(-c3cncc4ccccc34)cs2)c1 [Compound 21]
Dyrk1A
  IC50: 3500 nM
Dyrk1B
  IC50: 3200 nM
Dyrk2
  IC50: 2900 nM
CK2α
  inhibition at 5 µM: 6%

## c1cncc(-c2cc(-c3cncnc3)cs2)c1 [Compound 22]
Dyrk1A
  IC50: 1800 nM
Dyrk1B
  IC50: 3500 nM
Dyrk2
  IC50: 1800 nM
CK2α
  inhibition at 5 µM: 0%

## Nc1cc(-c2csc(-c3cccnc3)c2)cnc1Cl [Compound 23]
Dyrk1A
  IC50: 1300 nM
Dyrk1B
  IC50: 1400 nM
Dyrk2
  IC50: 300 nM
CK2α
  inhibition at 5 µM: 0%

## Cn1cnc2cc(-c3csc(-c4cccnc4)c3)cnc21 [Compound 24]
Dyrk1A
  inhibition at 5 µM: 37%
Dyrk1B
  inhibition at 1 µM: 13%
Dyrk2
  IC50: 630 nM and 600 nM
CK2α
  inhibition at 5 µM: 7%

## [O-][n+]1cccc(-c2csc(-c3cccnc3)c2)c1 [Compound 25]
Dyrk1A
  inhibition at 5 µM: 4%

## Cn1ccc(-c2csc(-c3cccnc3)c2)cc1=O [Compound 26]
Dyrk1A
  percentage of inhibition Dyrk1A: No inhibition
Dyrk1B
  percentage of inhibition Dyrk1B: No inhibition
Dyrk2; at 5 µM
  inhibition at 5 µM: 27%

## c1cncc(-c2cc(-c3ccc4c(c3)CCO4)cs2)c1 [Compound 27]
Dyrk1A
  percentage of inhibition Dyrk1A: No inhibition
Dyrk1B
  percentage of inhibition Dyrk1B: No inhibition
Dyrk2; at 5 µM
  inhibition at 5 µM: 31%

## c1cncc(-c2cc(-c3cscn3)cs2)c1 [Compound 28]
Dyrk1A
  inhibition at 5 µM: 31%
Dyrk2
  IC50: 6700 nM

## Cn1cncc1-c1csc(-c2cccnc2)c1 [Compound 31]
Dyrk1A
  inhibition at 5 µM: 44%
Dyrk1B
  IC50: 9100 nM
Dyrk2
  IC50: 5100 nM

## c1cncc(-c2cc(-c3cnc4ccccn34)cs2)c1 [Compound 32]
Dyrk1A
  IC50: 2200 nM
Dyrk1B
  IC50: 600 nM
Dyrk2
  IC50: 400 nM
CK2α
  inhibition at 5 µM: 0%

## Clc1cncc(-c2csc(-c3cnco3)c2)c1 [Compound 34]
Dyrk1A
  inhibition at 5 µM: 0%
Dyrk1B
  inhibition at 5 µM: 18%
Dyrk2; at 5 µM
  inhibition at 5 µM: 12%

## Cc1cncc(-c2csc(-c3cnco3)c2)c1 [Compound 35]
Dyrk1A
  IC50: 1200 nM
Dyrk1B
  IC50: 1100 nM
Dyrk2
  IC50: 1500 nM
CK2α
  inhibition at 5 µM: -15%

## c1ncc(-c2csc(-c3cnco3)c2)cn1 [Compound 36]
Dyrk1A
  inhibition at 5 µM: 25%
Dyrk1B
  inhibition at 5 µM: 40%
Dyrk2; at 5 µM
  inhibition at 5 µM: 16%

## CSc1ncc(-c2csc(-c3cnco3)c2)cn1 [Compound 37]
Dyrk1A
  inhibition at 5 µM: 7%
Dyrk1B
  inhibition at 5 µM: 21%
Dyrk2; at 5 µM
  inhibition at 5 µM: 5%

## c1ncc(-c2cc(-c3cn[nH]c3)cs2)o1 [Compound 38]
Dyrk1A
  IC50: 1500 nM
Dyrk1B
  IC50: 2200 nM
Dyrk2
  IC50: 1500 nM
CK2α
  inhibition at 5 µM: -20%

## c1ccc2c(-c3csc(-c4cnco4)c3)cncc2c1 [Compound 39]
Dyrk1A
  inhibition at 5 µM: 20%
Dyrk1B
  IC50: 8070 nM
Dyrk2; at 5 µM
  inhibition at 5 µM: 19%

## c1cc2cc(-c3csc(-c4cnco4)c3)ccc2[nH]1 [Compound 40]
Dyrk1A
  inhibition at 5 µM: 18%
Dyrk1B
  inhibition at 5 µM: 9%
Dyrk2; at 5 µM
  inhibition at 5 µM: 30%

## Clc1cncc(-c2csc(-c3cncnc3)c2)c1 [Compound 42]
Dyrk1A
  inhibition at 5 µM: 1%
Dyrk1B
  inhibition at 5 µM: 5%
Dyrk2; at 5 µM
  inhibition at 5 µM: 0%

## Cc1cncc(-c2csc(-c3cncnc3)c2)c1 [Compound 43]
Dyrk1A
  IC50: 5000 nM
Dyrk1B
  IC50: 2200 nM
Dyrk2
  IC50: 3800 nM
CK2α
  inhibition at 5 µM: -15%

## c1ncc(-c2csc(-c3cncnc3)c2)cn1 [Compound 44]
Dyrk1A
  inhibition at 5 µM: 2%
Dyrk1B
  inhibition at 5 µM: 27%
Dyrk2; at 5 µM
  inhibition at 5 µM: 27%

## CSc1ncc(-c2csc(-c3cncnc3)c2)cn1 [Compound 45]
Dyrk1A
  inhibition at 5 µM: 8%
Dyrk1B
  inhibition at 5 µM: 20%
Dyrk2; at 5 µM
  inhibition at 5 µM: -24%

## c1ccc2c(-c3csc(-c4cncnc4)c3)cncc2c1 [Compound 46]
Dyrk1A
  inhibition at 5 µM: 9%
Dyrk1B
  inhibition at 5 µM: 33%
Dyrk2; at 5 µM
  inhibition at 5 µM: 15%

## c1cncc(-c2csc(-c3cncc4ccccc34)c2)c1 [Compound 47]
Dyrk1A
  IC50: 1500 nM
Dyrk1B
  IC50: 2400 nM
Dyrk2
  IC50: 1200 nM
CK2α
  inhibition at 5 µM: 3%
